This passage reports viability, T/C and IC50 results from PubChem BioAssay AID1963825 (Molecular Pharmacology Branch, DTP, NCI, 2024).

The nature of the test: Anticancer human tumor 997537-175-T-J1-PDC patient-derived colon adenocarcinoma cell line growth inhibition [POLQ]. The settings on record: 997537-175-T-J1-PDC complex spheroid viability, combination with POLQ inhibitors; for viability, T/C: stronger effect = lower value. The procedure: Multicellular complex tumor spheroid response to Polymerase (POL) inhibitors (novobiocin, ART-558, RP6685) in combination with a variety of drugs and investigational agents in selected tumor cell lines
The POL inhibitors (novobiocin, ART-558, and RP6685) were evaluated both individually and in combination with standard of care and investigational anticancer small molecules within a complex spheroid model of solid tumors. . Complex spheroids include a stromal component modeled by human endothelial cells (HUVEC) and fibroblasts modeled by human mesenchymal stem cells (MSCs). The concentration ranges selected for each drug and investigational agent were based upon clinically achievable concentrations if the clinical Cmax of the agent was known.
Compounds. The drugs and investigational agents: novobiocin (NSC847541), ART-558 (NSC835418), RP-6685 (NSC848927), peposertib (NSC802822), ceralasertib (NSC780249), elimusertib (NSC800525), camonsertib (NSC841442), AZD-1390 (NSC803789), olaparib (NSC753686), talazoparib (NSC767125), rucaparib (NSC756644), sotorasib (NSC818433), MRTX-1133 (NSC836407), SN-38 (NSC673596), topotecan (NSC609699), epotoside (NSC141540), doxorubicin (NSC123127), gemcitabine (NSC613327), 5-fluorouracil (NSC19893), paclitaxel (NSC125973), vemurafenib (NSC761431), MSA-2 (NSC828583), SN-011 (NSC837082), adavosertib (NSC754352), prexasertib (NSC758257), carboplatin (NSC241240) and oxaliplatin (NSC266046), were obtained from the National Cancer Institute (NCI) Developmental Therapeutics Program Chemical Repository (21). The FDA-approved anticancer drug set is available from the Developmental Therapeutics Program at https://dtp.cancer.gov/organization/dscb/obtaining/. […] The stock solutions were prepared in dimethyl sulfoxide (DMSO, Sigma-Aldrich, St. Louis, MO, cat. D2650), except for the platinum compounds which were prepared in saline (Quality Biological, Gaithersburg, MD, cat. 114-055-101), at 800-fold the tested concentration and stored at -70 degrees C prior to their use. All drugs and investigational agents were tested over a range starting from a high concentration at or near the clinical Cmax and decreasing in half-log increments. If the clinical Cmax for an agent had not been determined, the highest concentration tested was 10 microM, except for SN-38, which was tested at a high concentration of 1 microM.
Cell Culture. All cells were maintained in an incubator at 37 degrees C and 5% CO2 with 95% humidity. The PDC lines were cultured according to standard operating procedures established by the NCI PDMR (https://pdmr.cancer.gov). Table 3 of the manuscript, lists the cell lines along with the number of the three cell types plated to form the mct-spheroids and media for tumor cell growth. After thawing, all PDC lines, except 997537-175-T-J1-PDC and 415267-285-R-J2-PDC, were cultured in Matrigel-coated flasks prepared with a working solution of 1X Ham's F-12 nutrient mix, without supplementation (Thermo Fisher Scientific, cat. 11765054), 100 U/mL penicillin-streptomycin (Thermo Fisher Scientific, cat. 15140122), and 2.5% Matrigel (Corning Inc., Corning, NY, cat. 354248) for the first three passages. The two PDC lines 997537-175-T-J1-PDC and 415267-285-R-J2-PDC were cultured on uncoated flasks. The 857933-349-R-J2-PDC line was cultured in 6C/Colon 1B media containing advanced DMEM/F-12 (Thermo Fisher Scientific, cat. 12634028), 10 mM HEPES (Thermo Fisher Scientific, cat. 15630080), 1X GlutaMAX supplement (Thermo Fisher Scientific, cat. 35050061), 0.1 mg/mL primocin (InvivoGen, San Diego, CA, cat. ant-pm-2), 10% defined fetal bovine serum, heat inactivated (HyClone Laboratories Inc., Logan, UT, cat. SH30070.03HI), 50% L-WRN conditioned media (ATCC, cat. CRL-3276), 1.25 mM N-Acetyl-L-cysteine (Sigma-Aldrich, cat. A9165), 10 mM nicotinamide (Sigma-Aldrich, cat. N0636), 1X B-27 supplement (Thermo Fisher Scientific, cat. 17504044), 1X N-2 supplement (Thermo Fisher Scientific, cat. […]

[1] abbreviates: compound alone, run of 12/05/2023.

Several values for one entry are separate records, joined by “and”; a condition that tells them apart may be missing. Equal entries are not always repeated.
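Note: luminescence signal used as a surrogate for viable cells; spheroids exposed to drugs for seven days before readout.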

Regarding `COc1cc(C2c3cc4c(cc3C(OC3OC5COC(C)OC5C(O)C3O)C3COC(=O)C23)OCO4)cc(OC)c1O` (configuration not stated), the viability, T/C is 81.2% and 92.1% and 89.8% (compound 0.0316 µM); 90% and 102% and 100% (compound 0.1 µM); 86.5% and 100% and 114% (compound 0.316 µM); 102% and 92.9% and 99.7% (compound 1 µM); 92.7% and 81% and 88.9% (compound 3.16 µM); 76.3% and 68.8% and 51.7% (compound 10 µM). In addition, the IC50 (curve of compound) is over 10000 nM.

On to `COc1cccc(OCCCN)c1-c1cc(Nc2cnc(C#N)cn2)n[nH]1`, for which the viability, T/C (compound 0.00316 µM) is 96.8% and 107% and 96.1%; the viability, T/C (compound 0.01 µM) is 106% and 98.4% and 92.4%; the viability, T/C (compound 0.0316 µM) was 54.1% and 72% and 72.3%; the viability, T/C (compound 0.1 µM) is 52.4% and 57.1% and 43.6%; the viability, T/C (compound 0.316 µM) is 24.1% and 36.5% and 25.2%; the viability, T/C (compound 1 µM) was 25.2% and 27.3% and 13.4%. The IC50 (curve of compound) is 65.8 nM and 135 nM and 80.1 nM.

Take `COc1cccc2c1C(=O)c1c(O)c3c(c(O)c1C2=O)CC(O)(C(=O)CO)CC3OC1CC(N)C(O)C(C)O1` (configuration not stated): the viability, T/C reads like this: (compound 0.0316 µM) 91.6% and 101% and 113%; (compound 0.1 µM) 81.9% and 97% and 103%; (compound 0.316 µM) 87.3% and 68.5% and 110%; (compound 1 µM) 93.9% and 90% and 81.8%; (compound 3.16 µM) 57.7% and 37.8% and 27.6%; (compound 10 µM) 8.92% and 9.36% and 7.86%. In addition, the IC50 (curve of compound) is 3790 nM and 2410 nM and 1970 nM.

On to `Cc1cccc(N(C)C(=O)C2C(O)CCN2c2nc(C)cc(C(F)(F)F)c2C#N)c1` (configuration not stated), for which the viability, T/C (compound 0.0316 µM) was 97.6% [middle of 13 runs]; the viability, T/C (compound 0.1 µM) is 98.6% [middle of 13 runs]; the viability, T/C (compound 0.316 µM) is 97.3% [middle of 13 runs]; the viability, T/C (compound 1 µM) was 101% [middle of 13 runs]; the viability, T/C (compound 3.16 µM) is 101% [middle of 13 runs]; the viability, T/C (compound 10 µM) was 96.9% [middle of 13 runs]. For the same compound, the 50% inhibitory concentration (IC50) (compound alone, run of 11/27/2023) is over 10000 nM and the IC50 under setting [1] is over 10000 nM.

As for `Cn1ncnc1[C@H]1c2n[nH]c(=O)c3cc(F)cc(c23)N[C@@H]1c1ccc(F)cc1`, the viability, T/C (compound 0.000316 µM) is 93.6% and 104% and 95.7%; the viability, T/C (compound 0.001 µM) is 114% and 96.4% and 80.4%; the viability, T/C (compound 0.00316 µM) was 80.6% and 115% and 106%; the viability, T/C (compound 0.01 µM) is 110% and 98.3% and 88.3%; the viability, T/C (compound 0.0316 µM) was 104% and 106% and 100%; the viability, T/C (compound 0.1 µM) is 94.7% and 98.2% and 90%. Moreover, the IC50 (curve of compound) was over 100 nM.

For `Nc1ccc(C#CCN(C(=O)Cc2ncc(C(F)(F)F)cc2C(F)(F)F)c2ccc(F)cc2)nn1`, the viability, T/C (compound 0.0316 µM) is 99.2% [middle of 13 runs]; the viability, T/C (compound 0.1 µM) is 97.2% [middle of 13 runs]; the viability, T/C (compound 0.316 µM) was 99.4% [middle of 13 runs]; the viability, T/C (compound 3.16 µM) is 98.6% [middle of 13 runs]; the viability, T/C (compound 10 µM) is 101% [middle of 13 runs]. Also, the IC50 under setting [1] is over 10000 nM.

On to `Nc1ccn(C2OC(CO)C(O)C2(F)F)c(=O)n1` (configuration not stated), for which the viability, T/C is, setting by setting: (compound 0.0316 µM) 104% (2×) and 98.4%; (compound 0.1 µM) 93.9% and 111% and 97.5%; (compound 0.316 µM) 85.7% and 84.1% and 75%; (compound 1 µM) 69.6% and 75.9% and 84.9%; (compound 3.16 µM) 80.9% and 85.4% and 87.5%; (compound 10 µM) 85% and 80% and 70.2%. Also, the half-inhibitory concentration (IC50) (curve of compound) was over 10000 nM.

As to `O=C(c1cc(Cc2n[nH]c(=O)c3ccccc23)ccc1F)N1CCN(C(=O)C2CC2)CC1`, the viability, T/C runs as follows: (compound 0.0316 µM) 98.8% and 31.4% and 107%; (compound 0.1 µM) 107% and 36% and 112%; (compound 0.316 µM) 99.5% and 36% and 104%; (compound 1 µM) 87.5% and 38% and 104%; (compound 3.16 µM) 121% and 40.2% and 95.3%; (compound 10 µM) 89.1% and 32.3% and 94.1%.

As to `O=c1[nH]cc(F)c(=O)[nH]1`, the viability, T/C was 86.3% and 95% and 102% (compound 0.0316 µM); 99.9% and 91.8% and 89.1% (compound 0.1 µM); 108% and 90% and 106% (compound 0.316 µM); 92.9% and 96.2% and 106% (compound 1 µM); 102% and 92% and 105% (compound 3.16 µM); 83.8% and 76.2% and 81.4% (compound 10 µM). Besides, the IC50 (curve of compound) is over 10000 nM.
